Test results from patent US8623408B2, “Cladribine formulations for improved oral and transmucosal delivery” (Ares Trading S.A., priority 2003, dated 2014).
Where “and” joins values, the source holds several entries; their conditions need not be identical. Identical values can stand only once. Like-named read-outs stand apart in the source and are kept apart here.

Assay: Bioavailability and pharmacokinetic studies in beagle dog model
Format: in vivo
Set-up: AUC/Dose: unit not given here
Details: dogs; for AUC/Dose: dose in mg/kg; for concentration at 5 min: 5 mg/animal, read-out: Cfirst (first measured concentration at 5 minutes)
Procedure: The bioavailability of cladribine when complexed with γCD or HPβCD was evaluated in a beagle dog model.
Bioavailability and pharmacokinetic studies were conducted in a beagle dog model as follows.
Outbred male beagle dogs (identified as PM01-PM06) obtained from IDRI (Dunakeszi, Hungary) were allowed laboratory diet and water ad libitum. The same dogs were used throughout the study to minimize inter- and intrasubject variability. The bioavailability and pharmacokinetic studies were conducted as follows.
In the first test period, 5 mg cladribine (0.25 mg/ml in isotonic saline) was administered intravenously to test subjects. Blood samples were collected at various time intervals over 48 hours. In the second test period, half of the subjects received buccally a tablet as described above containing a saturated cladribine-γCD or -HPβCD complex. Serial blood samples were collected over 48 hours. The third test period repeated the second test period with the exception that the subjects previously receiving the γ-cyclodextrin buccal tablet were now given hydroxypropyl-β-cyclodextrin buccal tablets, with hydroxypropyl-β-cyclodextrin tablet recipients from the second period receiving γ-cyclodextrin buccal tablets. The fourth and fifth test periods repeated test periods two and three with the exception that the tablets were given orally.
Cladribine levels in the blood were measured by HPLC and an LC/MS/MS method. The TopFit 2.0 Pharmacokinetic and Pharmacodynamic Data Analysis System was used for the pharmacokinetic analysis of the data.
The peak areas, calibration curves, accuracy, precision values and the concentrations were determined using Analyst Software 1.1 (PE SCIEX, Foster City, US). For calculation of mean and standard deviation, Excel 5.0 software was used. The calibration curve was fitted using the ratio of concentrations of analyte and internal standard versus the ratio of the peak areas of them. A straight line was fitted on the experimental points by weighted least squares linear regression analysis. The weighting scheme used was 1/concentration squared as pg/ml plasma.
For calculation of mean, standard deviation and CV %, Excel 5.0 software was used. Lower levels than the limit of quantification were not accepted. Mean and S.D. values were calculated only for the concentrations measured after intravenous administration.
Pharmacokinetic analysis was performed on the basis of individual plasma concentration versus time curves. The mean and S.D. of parameters obtained from individual data were calculated. The linear-trapezoidal rule was used for calculation of the area under the plasma concentration time curve from 0 until the last measured concentration (AUD). Using the terminal regression line the area extrapolated to infinity (AUCt-∞) was calculated in the following way: AUCt-∞=ccalc/λz • where: Ccalc represents the estimated plasma concentration by the regression line at the last sampling time point with measured concentration above the limit of quantification, and λz represents the rate constant calculated from the regression line.
The points determining the regression line, i.e. the terminal phase, were selected by visual determination of the linear segment of the semilogarithmic curve. The total area under the curve (AUC) was calculated by adding together the partial areas: AUC=AUD+AUCt-∞. The AUC values were normalized by the actual dose given in the particular period. For calculation of the bioavailability, the buccal/oral AUC/dose value was divided by the intravenous AUC/dose value.

[1] = intravenous bolus, 5 mg cladribine/animal, Mean of 6 dogs
[2] = intravenous bolus, 5 mg cladribine/animal, individual dogs PM01-PM06

For Nc1nc(Cl)nc2c1ncn2[C@H]1C[C@H](O)[C@@H](CO)O1 [cladribine, 2-chloro-2′-deoxyadenosine], the AUD [1] was 377 ng·h/mL, the AUDext [1] was 1.4% and the “Cinitial (extrapolated value at the end of the bolus)” value [1] was 563 ng/mL. For the same molecule, the MRTtot [1] was 1.3 h, the AUC/Dose [1] was 967 and the AUC/Dose [2] was 918 and 965 and 947 and 949 and 948 and 1077. For the same molecule, the AUC [2] was 338 ng·h/mL and 366 ng·h/mL and 432 ng·h/mL and 342 ng·h/mL and 433 ng·h/mL, the AUD [2] was 379 ng · h/ml and 334 ng · h/ml and 359 ng · h/ml and 426 ng · h/ml (2×) and 337 ng · h/ml and the AUDext [2] was 1.4% (3×) and 1.0% and 1.9% and 1.5%. The “Cfirst (first measured concentration at 5 minutes)” value [2] was 306 ng/mL and 478 ng/mL and 560 ng/mL and 446 ng/mL and 605 ng/mL, the “Cinitial (extrapolated value at the end of the bolus)” value [2] was 569 ng/mL and 335 ng/mL and 567 ng/mL and 655 ng/mL and 525 ng/mL and 726 ng/mL and the Cltot [2] was 247 mL/min and 228 mL/min and 193 mL/min and 244 mL/min and 192 mL/min. For the same molecule, the Cltot/kg [2] was 17.6 mL/min/kg and 15.4 mL/min/kg, the MRTtot [2] was 1.4 h and 1.5 h and 1.3 h (3×) and 1.2 h and the t½ terminal [2] was 11.3 h and 9.9 h and 10.4 h and 8.5 h and 10.7 h. For the same molecule, the clearance (male, beagle, dog, plasma, iv, 5 mg, after intravenous administration, read-out: mean total clearance) was 17 mL/min/kg, the half-life (male, beagle, dog, plasma, iv, 5 mg, after intravenous administration, read-out: terminal elimination half-life (converted)) was ~10 h and the AUC (male, beagle, dog, plasma, iv, 5 mg, intravenous bolus, 5 mg cladribine/animal, Mean of 6 dogs, read-out: AUC) was 382 ng·h/mL. The clearance (male, beagle, dog, plasma, iv, 5 mg, intravenous bolus, 5 mg cladribine/animal, Mean of 6 dogs, read-out: Cltot) was 220 mL/min, the clearance (male, beagle, dog, plasma, iv, 5 mg, intravenous bolus, 5 mg cladribine/animal, Mean of 6 dogs, read-out: Cltot/kg) was 17.3 mL/min/kg and the half-life (male, beagle, dog, plasma, iv, 5 mg, intravenous bolus, 5 mg cladribine/animal, Mean of 6 dogs, read-out: t½ terminal (converted)) was 10.3 h. It also gave an AUC (male, beagle, dog, plasma, iv, 5 mg, intravenous bolus, 5 mg cladribine/animal, individual dogs PM01-PM06, read-out: AUC) of 383 ng·h/mL, a clearance (male, beagle, dog, plasma, iv, 5 mg, intravenous bolus, 5 mg cladribine/animal, individual dogs PM01-PM06, read-out: Cltot) of 217 mL/min and a clearance (male, beagle, dog, plasma, iv, 5 mg, intravenous bolus, 5 mg cladribine/animal, individual dogs PM01-PM06, read-out: Cltot/kg) of 18.1 mL/min/kg. It also gave a half-life (male, beagle, dog, plasma, iv, 5 mg, intravenous bolus, 5 mg cladribine/animal, individual dogs PM01-PM06, read-out: t½ terminal (converted)) of 11 h, a concentration at 5 min (male, beagle, dog, plasma, iv, intravenous bolus, 5 mg cladribine/animal, Mean of 6 dogs) of 479 ng/mL and a concentration at 5 min (male, beagle, dog, plasma, iv, intravenous bolus, 5 mg cladribine/animal, individual dogs PM01-PM06) of 477 ng/mL.
